The subject of one test is 621-102 (TSC2-deficient). Briefly: relative viability vs DMSO; higher = less cytotoxic. The settings on record: serum: 10% FBS, 72 h.
For the next test, the system named is 621-103 (TSC2-rescued). The test is described as above. As to conditions: serum: 10% FBS, 72 h.

Structures can show the parent of a compound that is named as a salt. ± gives the standard error.
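Further: immortalized renal angiomyolipoma cells stably carrying empty vector or TSC2, dosed in 384-well plates in DMEM, viability normalized to vehicle-treated wells within each plate.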

Consider `NC(=O)c1ncn([C@@H]2O[C@H](CO)[C@@H](O)[C@H]2O)c1O` [Mizoribine], for which the relative viability is 102 ± 2.1% in the test with 621-102 (TSC2-deficient) (0.0001 µM); 98.3 ± 1.2% in the test on 621-102 (TSC2-deficient) (0.001 µM); 102 ± 1.2% in the test with 621-102 (TSC2-deficient) (0.01 µM); 100.8 ± 0.97% in the test on 621-102 (TSC2-deficient) (0.1 µM); 99.9 ± 2.9% with 621-102 (TSC2-deficient) (1 µM); 92.9 ± 2.9% with 621-102 (TSC2-deficient) (10 µM). Further, the relative viability in the test on 621-103 (TSC2-rescued) (0.0001 µM) was found to be 104.1 ± 0.62%; in the test on 621-103 (TSC2-rescued) (0.001 µM), 99.8 ± 2%; with 621-103 (TSC2-rescued) (0.01 µM), 99.1 ± 2.2%; in the test on 621-103 (TSC2-rescued) (0.1 µM), 105 ± 3.8%; in the test with 621-103 (TSC2-rescued) (1 µM) it was 98.1 ± 2.5%; with 621-103 (TSC2-rescued) (10 µM) it was 97.4 ± 2.2%.

With `CCC(C)n1ncn(-c2ccc(N3CCN(c4ccc(OCC5COC(Cn6cncn6)(c6ccc(Cl)cc6Cl)O5)cc4)CC3)cc2)c1=O` (stereo not drawn) [Itraconazole (Sporanox)], the relative viability with 621-102 (TSC2-deficient) (0.0001 µM) amounted to 108 ± 2.3%; with 621-102 (TSC2-deficient) (0.001 µM), 115 ± 3.1%; in the test with 621-102 (TSC2-deficient) (0.01 µM), 102 ± 1.8%; in the test with 621-102 (TSC2-deficient) (0.1 µM), 112 ± 3.4%; with 621-102 (TSC2-deficient) (1 µM), 60 ± 7.2%; in the test on 621-102 (TSC2-deficient) (10 µM), 7.53 ± 0.32%. For the same molecule, the relative viability with 621-103 (TSC2-rescued) (0.0001 µM) stood at 98.8 ± 5.2%; with 621-103 (TSC2-rescued) (0.001 µM), 86.8 ± 1.1%; in the test on 621-103 (TSC2-rescued) (0.01 µM), 95.59 ± 0.8%; in the test on 621-103 (TSC2-rescued) (0.1 µM) it was 97.5 ± 6.4%; in the test on 621-103 (TSC2-rescued) (1 µM), 70.71 ± 0.48%; with 621-103 (TSC2-rescued) (10 µM), 15.44 ± 0.12%.

`CC(NC(C)(C)C)C(=O)c1cccc(Cl)c1` (stereo not drawn) [Amfebutamone]: the relative viability was 110 ± 2.9% in the test on 621-102 (TSC2-deficient) (0.0001 µM); 103 ± 1.4% in the test on 621-102 (TSC2-deficient) (0.001 µM); 104.4 ± 0.4% with 621-102 (TSC2-deficient) (0.01 µM); 112 ± 2.4% with 621-102 (TSC2-deficient) (0.1 µM); 103 ± 2.4% in the test on 621-102 (TSC2-deficient) (1 µM); 103 ± 3.5% in the test with 621-102 (TSC2-deficient) (10 µM). Also, the relative viability in the test on 621-103 (TSC2-rescued) (0.0001 µM) came to 103.2 ± 0.3%; in the test on 621-103 (TSC2-rescued) (0.001 µM) it was 105 ± 2.2%; in the test with 621-103 (TSC2-rescued) (0.01 µM), 98.8 ± 1.9%; in the test with 621-103 (TSC2-rescued) (0.1 µM), 101 ± 2.8%; in the test with 621-103 (TSC2-rescued) (1 µM), 102 ± 2.8%; in the test on 621-103 (TSC2-rescued) (10 µM) it was 102 ± 1.2%.

As for `COc1cc([C@@H]2c3cc4c(cc3[C@@H](O[C@@H]3O[C@@H]5CO[C@@H](C)O[C@H]5[C@H](O)[C@H]3O)[C@H]3COC(=O)[C@H]23)OCO4)cc(OC)c1O` [Etoposide (Etopophos)], the relative viability is 109.8 ± 0.44% in the test with 621-102 (TSC2-deficient) (0.0001 µM); 108.1 ± 0.98% with 621-102 (TSC2-deficient) (0.001 µM); 114 ± 3.7% in the test with 621-102 (TSC2-deficient) (0.01 µM); 104 ± 2.5% in the test with 621-102 (TSC2-deficient) (0.1 µM); 81.3 ± 5.1% in the test on 621-102 (TSC2-deficient) (1 µM); 54.6 ± 2.9% in the test with 621-102 (TSC2-deficient) (10 µM). The relative viability in the test with 621-103 (TSC2-rescued) (0.0001 µM) is 99.77 ± 0.28%; in the test on 621-103 (TSC2-rescued) (0.001 µM), 98.19 ± 0.16%; in the test on 621-103 (TSC2-rescued) (0.01 µM), 99.6 ± 1.2%; in the test with 621-103 (TSC2-rescued) (0.1 µM), 98.7 ± 1%; in the test on 621-103 (TSC2-rescued) (1 µM), 91.5 ± 2.3%; in the test on 621-103 (TSC2-rescued) (10 µM) it was 55.6 ± 0.8%.

`CC(C)(C#N)c1cc(Cn2cncn2)cc(C(C)(C)C#N)c1` [Anastrozole (Arimidex)]: the relative viability was 125 ± 1.8% in the test with 621-102 (TSC2-deficient) (0.0001 µM); 109 ± 6.2% in the test with 621-102 (TSC2-deficient) (0.001 µM); 108 ± 3.5% in the test on 621-102 (TSC2-deficient) (0.01 µM); 106 ± 2.2% with 621-102 (TSC2-deficient) (0.1 µM); 120 ± 1.5% with 621-102 (TSC2-deficient) (1 µM); 119 ± 4.3% with 621-102 (TSC2-deficient) (10 µM). Further, the relative viability turned out to be 101 ± 1.4% in the test with 621-103 (TSC2-rescued) (0.0001 µM); 104 ± 3.2% in the test with 621-103 (TSC2-rescued) (0.001 µM); 101 ± 1.7% with 621-103 (TSC2-rescued) (0.01 µM); 103.6 ± 0.71% in the test with 621-103 (TSC2-rescued) (0.1 µM); 99.407 ± 0.097% with 621-103 (TSC2-rescued) (1 µM); 99.4 ± 2.6% with 621-103 (TSC2-rescued) (10 µM).

On to `N#Cc1ccc(C(c2ccc(C#N)cc2)n2cncn2)cc1` [Letrozole], for which the relative viability in the test on 621-102 (TSC2-deficient) (0.0001 µM) amounted to 130 ± 1.9%; in the test with 621-102 (TSC2-deficient) (0.001 µM), 114 ± 5.8%; in the test on 621-102 (TSC2-deficient) (0.01 µM) it was 114 ± 0.22%; in the test on 621-102 (TSC2-deficient) (0.1 µM), 104 ± 5%; in the test with 621-102 (TSC2-deficient) (1 µM) it was 113.3 ± 0.22%; in the test on 621-102 (TSC2-deficient) (10 µM), 111 ± 1.2%. Besides, the relative viability with 621-103 (TSC2-rescued) (0.0001 µM) came to 103 ± 1.7%; in the test with 621-103 (TSC2-rescued) (0.001 µM) it was 105 ± 2%; in the test with 621-103 (TSC2-rescued) (0.01 µM), 103.5 ± 0.86%; in the test on 621-103 (TSC2-rescued) (0.1 µM), 99.5 ± 1%; in the test on 621-103 (TSC2-rescued) (1 µM), 102.6 ± 0.18%; in the test on 621-103 (TSC2-rescued) (10 µM), 101 ± 1.1%.

As for `CCCN[C@H]1CCc2nc(N)sc2C1` [Pramipexole dihydrochloride monohydrate], the relative viability was determined as 91.3 ± 7.3% with 621-102 (TSC2-deficient) (0.0001 µM); 84.5 ± 4.2% with 621-102 (TSC2-deficient) (0.001 µM); 101 ± 2.4% in the test on 621-102 (TSC2-deficient) (0.01 µM); 102 ± 1.4% in the test with 621-102 (TSC2-deficient) (0.1 µM); 91.4 ± 1.3% with 621-102 (TSC2-deficient) (1 µM); 94.4 ± 1.9% with 621-102 (TSC2-deficient) (10 µM). In addition, the relative viability in the test with 621-103 (TSC2-rescued) (0.0001 µM) is 98.1 ± 4.4%; in the test with 621-103 (TSC2-rescued) (0.001 µM), 95.62 ± 0.72%; with 621-103 (TSC2-rescued) (0.01 µM) it was 101 ± 2.9%; with 621-103 (TSC2-rescued) (0.1 µM) it was 101 ± 1.8%; in the test with 621-103 (TSC2-rescued) (1 µM), 105 ± 2.4%; in the test with 621-103 (TSC2-rescued) (10 µM), 100.5 ± 0.52%.

Consider `CCC(=O)O[C@H]1CC[C@H]2[C@@H]3CCC4=CC(=O)CC[C@]4(C)[C@H]3CC[C@]12C` [Testosterone propionate (Agovirin)], for which the relative viability was 104 ± 2.2% with 621-102 (TSC2-deficient) (0.0001 µM); 104 ± 1.2% with 621-102 (TSC2-deficient) (0.001 µM); 98.7 ± 3.7% in the test on 621-102 (TSC2-deficient) (0.01 µM); 104 ± 1.1% with 621-102 (TSC2-deficient) (0.1 µM); 104 ± 2.2% with 621-102 (TSC2-deficient) (1 µM); 103 ± 4.2% with 621-102 (TSC2-deficient) (10 µM). Moreover, the relative viability in the test with 621-103 (TSC2-rescued) (0.0001 µM) came to 109 ± 3.1%; with 621-103 (TSC2-rescued) (0.001 µM), 105 ± 1.9%; in the test on 621-103 (TSC2-rescued) (0.01 µM), 104 ± 1.2%; in the test on 621-103 (TSC2-rescued) (0.1 µM) it was 98.7 ± 2.8%; in the test on 621-103 (TSC2-rescued) (1 µM), 102.1 ± 0.64%; in the test with 621-103 (TSC2-rescued) (10 µM) it was 87.6 ± 1.6%.

Take `COC(=O)N[C@H](C(=O)N1CCC[C@H]1c1ncc(-c2ccc(-c3ccc(-c4cnc([C@@H]5CCCN5C(=O)[C@@H](NC(=O)OC)C(C)C)[nH]4)cc3)cc2)[nH]1)C(C)C`: the relative viability in the test with 621-102 (TSC2-deficient) (0.0001 µM) was found to be 103 ± 3.2%; with 621-102 (TSC2-deficient) (0.001 µM) it was 105 ± 0.22%; in the test with 621-102 (TSC2-deficient) (0.01 µM), 106 ± 1.6%; in the test on 621-102 (TSC2-deficient) (0.1 µM), 101 ± 3.8%; in the test on 621-102 (TSC2-deficient) (1 µM), 96.21 ± 0.14%; in the test with 621-102 (TSC2-deficient) (10 µM), 81.1 ± 2%. The relative viability in the test with 621-103 (TSC2-rescued) (0.0001 µM) amounted to 100 ± 2.7%; with 621-103 (TSC2-rescued) (0.001 µM) it was 98.82 ± 0.6%; with 621-103 (TSC2-rescued) (0.01 µM) it was 100 ± 1.2%; in the test with 621-103 (TSC2-rescued) (0.1 µM), 102 ± 2.3%; in the test with 621-103 (TSC2-rescued) (1 µM), 99.4 ± 2.4%; in the test with 621-103 (TSC2-rescued) (10 µM), 94.1 ± 1.9%.

The values above are taken from the supplement of paper PMC8960247.
